“And” between values parts separate entries of the source, which are not always exact repeats. Identical values can stand only once. Like-named read-outs stand apart in the source and are kept apart here.
How the values were obtained:
[1] = Pharmacokinetics / bioavailability after oral disintegrating tablet dose; format: in vivo, male Beagle dogs; conditions: for AUC(0-t) / AUC(0-inf) / Cmax / Tmax / half-life: po, 50.75 mg
Protocol: The purpose of this study was to evaluate the bioavailability of Compound A following administration of the ODT formulation. Animals were administered Compound A, as described in the following table.
(§1) Dosing occurred at 50.75 mg/dose. The ODT was placed on the dog's tongue and the mouth held shut for approximately 30 seconds to allow the material to dissolve. In each case, the tablet quickly formed a white paste that was adhered to the tongue and was not swallowed whole.
Whole blood samples were collected from all animals as noted in the following table for determination of test article exposure.
• Method: LC-MS/MS • Column: Restek Raptor ARC-18 2.7 μm (30×2.1 mm) • Mobile Phase A: 0.1% Formic Acid in Water • Mobile Phase B: 0.1% Formic Acid in Acetonitrile • Ionization: (±) ESI with Ion Spray • Analyte: Compound A • MRM: m/z 324.200/182.200 amu • Internal Standard: Labetalol • MRM: m/z 329.200/294.200 amu • Assay Range (LLOQ and ULOQ): 1-5000 ng/mL
Pharmacokinetic concentration-time data for Compound A was analyzed using non-compartmental methods (Phoenix® WinNonlin® Version 8.1) with nominal sampling times and dosages. The following parameters were calculated whenever possible and as data allowed: Volume of distribution, Clearance, tl/2, C0/Cmax, Tmax, % F. and AUC. Additional parameters may have been calculated as appropriate. Descriptive statistics were generated using Phoenix WinNonlin.

[2] = system: male Beagle dogs; test: Tolerability (cageside observations) after ODT dose; format: in vivo; conditions: 50.75 mg/dose via ODT
Protocol: as §1
Cageside Observations, General signs of toxicity including fecal and urine quality, were completed approximately 1 hour post dose on dose days.

[3] = single ODT dose 50.75 mg/dose, male Beagle dogs

CSc1nc(N)c2ncn([C@H]3[C@H](O)[C@H](O)[C@]4(CO)C[C@H]34)c2n1 [Compound A]
Compound A Plasma Concentration, individual animals ([1]; 0.25 hr postdose, ODT 50.75 mg/dose, male Beagle dogs): 356 ng/mL and 309 ng/mL and 352 ng/mL and 114 ng/mL | Compound A Plasma Concentration, individual animals ([1]; 0.5 hr postdose, ODT 50.75 mg/dose, male Beagle dogs): 2300 ng/mL and 1840 ng/mL and 1690 ng/mL and 622 ng/mL | Compound A Plasma Concentration, individual animals ([1]; 1 hr postdose, ODT 50.75 mg/dose, male Beagle dogs): 2370 ng/mL and 2510 ng/mL and 1810 ng/mL | Compound A Plasma Concentration, individual animals ([1]; 2 hr postdose, ODT 50.75 mg/dose, male Beagle dogs): 1990 ng/mL and 2070 ng/mL and 1530 ng/mL | Compound A Plasma Concentration, individual animals ([1]; 4 hr postdose, ODT 50.75 mg/dose, male Beagle dogs): 1100 ng/mL and 1160 ng/mL and 798 ng/mL | Compound A Plasma Concentration, individual animals ([1]; 8 hr postdose, ODT 50.75 mg/dose, male Beagle dogs): 319 ng/mL and 413 ng/mL and 248 ng/mL | Compound A Plasma Concentration, individual animals ([1]; 24 hr postdose, ODT 50.75 mg/dose, male Beagle dogs): 132 ng/mL and 48.3 ng/mL and 119 ng/mL and 28.8 ng/mL | Percent F, Mean ([1]; N=4, single ODT dose, 4.66 mg/kg dose used for calculation, estimated value): 114% | concentration at 0.25 h ([1]; male, Beagle, dog, plasma, oral, 50.75 mg/dose, 0.25 hr postdose, N=4, ODT 50.75 mg/dose, male Beagle dogs, read-out: Compound A Plasma Concentration, Mean): 283 ng/mL | concentration at 0.5 h ([1]; male, Beagle, dog, plasma, oral, 50.75 mg/dose, 0.5 hr postdose, N=4, ODT 50.75 mg/dose, male Beagle dogs, read-out: Compound A Plasma Concentration, Mean): 1610 ng/mL | concentration at 1 h ([1]; male, Beagle, dog, plasma, oral, 50.75 mg/dose, 1 hr postdose, N=4, ODT 50.75 mg/dose, male Beagle dogs, read-out: Compound A Plasma Concentration, Mean): 2190 ng/mL | concentration at 1 h ([1]; male, Beagle, dog, plasma, oral, 50.75 mg/dose, 1 hr postdose, ODT 50.75 mg/dose, male Beagle dogs, read-out: Compound A Plasma Concentration, individual animals): 2080 ng/mL | concentration at 2 h ([1]; male, Beagle, dog, plasma, oral, 50.75 mg/dose, 2 hr postdose, N=4, ODT 50.75 mg/dose, male Beagle dogs, read-out: Compound A Plasma Concentration, Mean): 1810 ng/mL | concentration at 2 h ([1]; male, Beagle, dog, plasma, oral, 50.75 mg/dose, 2 hr postdose, ODT 50.75 mg/dose, male Beagle dogs, read-out: Compound A Plasma Concentration, individual animals): 1650 ng/mL | concentration at 4 h ([1]; male, Beagle, dog, plasma, oral, 50.75 mg/dose, 4 hr postdose, N=4, ODT 50.75 mg/dose, male Beagle dogs, read-out: Compound A Plasma Concentration, Mean): 1010 ng/mL | concentration at 4 h ([1]; male, Beagle, dog, plasma, oral, 50.75 mg/dose, 4 hr postdose, ODT 50.75 mg/dose, male Beagle dogs, read-out: Compound A Plasma Concentration, individual animals): 964 ng/mL | concentration at 8 h ([1]; male, Beagle, dog, plasma, oral, 50.75 mg/dose, 8 hr postdose, N=4, ODT 50.75 mg/dose, male Beagle dogs, read-out: Compound A Plasma Concentration, Mean): 354 ng/mL | concentration at 8 h ([1]; male, Beagle, dog, plasma, oral, 50.75 mg/dose, 8 hr postdose, ODT 50.75 mg/dose, male Beagle dogs, read-out: Compound A Plasma Concentration, individual animals): 434 ng/mL | concentration at 24 h ([1]; male, Beagle, dog, plasma, oral, 50.75 mg/dose, 24 hr postdose, N=4, ODT 50.75 mg/dose, male Beagle dogs, read-out: Compound A Plasma Concentration, Mean): 82 ng/mL | AUC(0-t) ([1]; male, Beagle, dog, plasma, N=4, single ODT dose 50.75 mg/dose, male Beagle dogs, read-out: AUC0-24, Mean): 12200 ng·h/mL | AUC(0-inf) ([1]; male, Beagle, dog, plasma, N=4, single ODT dose 50.75 mg/dose, male Beagle dogs, read-out: AUCinf, Mean): 13000 ng·h/mL | Cmax ([1]; male, Beagle, dog, plasma, N=4, single ODT dose 50.75 mg/dose, male Beagle dogs, read-out: Cmax, Mean): 2250 ng/mL | Tmax ([1]; male, Beagle, dog, plasma, N=4, single ODT dose 50.75 mg/dose, male Beagle dogs, read-out: Tmax, Mean): 0.88 h | half-life ([1]; male, Beagle, dog, plasma, N=4, single ODT dose 50.75 mg/dose, male Beagle dogs, read-out: t1/2, Mean (converted)): 5.51 h | AUC(0-t) ([1]; male, Beagle, dog, plasma, single ODT dose 50.75 mg/dose, male Beagle dogs, read-out: AUC0-24, individual animals): 9020 ng·h/mL | AUC(0-inf) ([1]; male, Beagle, dog, plasma, single ODT dose 50.75 mg/dose, male Beagle dogs, read-out: AUCinf, individual animals): 9200 ng·h/mL | Cmax ([1]; male, Beagle, dog, plasma, single ODT dose 50.75 mg/dose, male Beagle dogs, read-out: Cmax, individual animals): 1810 ng/mL | Tmax ([1]; male, Beagle, dog, plasma, single ODT dose 50.75 mg/dose, male Beagle dogs, read-out: Tmax, individual animals): 1 h | half-life ([1]; male, Beagle, dog, plasma, single ODT dose 50.75 mg/dose, male Beagle dogs, read-out: t1/2, individual animals (converted)): 4.41 h | AUC0-24, individual animals [1, 3]: 13300 ng·h/mL and 12400 ng·h/mL and 14300 ng·h/mL | AUCinf, individual animals [1, 3]: 14700 ng·h/mL and 12700 ng·h/mL and 15300 ng·h/mL | Cmax, individual animals [1, 3]: 2300 ng/mL and 2370 ng/mL and 2510 ng/mL | Tmax, individual animals [1, 3]: 0.50 h | t1/2, individual animals [1, 3]: 7.51 h and 4.33 h and 5.79 h | Percent F, individual animals ([1]; single ODT dose, 4.66 mg/kg dose used for calculation, estimated from nominal dose and estimated AUCinf, 4.66 mg/kg): 80.5% and 116% (2×) and 143% | Tolerability [2]: well tolerated

Reference: patent publication US20260151345A1, “FAST-DISSOLVING DOSAGE FORMS AND USES THEREOF” (Astrocyte Pharmaceuticals, Inc., priority 2022, published 2026)
